Laboratory results from patent US20240415804A1, “METHOD OF TREATING PANCREATIC CANCER” (University of South Florida, priority 2022, published 2024).

Legend:
[1] = test system: CD8+ T cells and MHC-II+ cells; test: AKOYA-CODEX imaging of tumor sections of KC-HPC mice; type: in vivo, mouse
Text: Next, the inventors examined the expression and infiltration of CD8^+ T cells and MHC-II^+ cells in the tumor sections of KC-HPC treated with vehicle or API and using AKOYA-CODEX which provides spatial capture of location and phenotype for multiple immune cells in the tumor. […] The inventors then observed, via 2D tSNE, increased CD8^+ T cell expression partially located within the tumor plots for the tumors of KC-HPC-API mice compared with vehicle treated KC-HPC mice (FIG. 15B). The poly-1-lysine coated coverslips containing 5-μm of Fresh Frozen (FF) tissue sections were stored at […] until use. At the staining time, FF tissue sections were baked for 30 min to 1 h at 55° C. According to Akoya Biosciences protocol, the FF tissues were dewaxed, deparaffinized in xylene then rehydrated in descending ethanol concentrations (100% twice, 90%, 70%, 50%, and 30%, respectively) and washed in ddH2O twice, each step for 5 min. Heat-induced epitope retrieval with antigen retrieval solution, pH 6, was performed using the pressure cooker at high-pressure protocol ([…]) for 20 min. After cooling at room temperature (RT) for 30 min to 1 h, the coverslips were washed in ddH2O twice for 2 min. […] The processed data were analyzed using the CODEX-MAV plugin in Image J. Then, nuclei segmentation was performed, followed by gating and clustering of the CD8+ T cells populations. […]

[2] = test system: miR-155; test: miR-155 gene expression in BM and tumor of OPC mice; type: in vivo, mouse; details: API 25 mg/kg IP 3 times per week for 2-3 weeks, vs OPC mice
Protocol: The inventors reported recently that API reduced tumor growth in an orthotopic (O) mouse model of PC (OPC)^12, which is a more clinically relevant model^69. To investigate if API targets miR-155 and regulates SHIP-1 expression in the BM and tumor of an OPC mouse model, OPC mice were treated with API at a dose of 25 mg/kg (IP) 3 times per week for 2-3 weeks. […] To generate orthotopic pancreatic models (OPC), anesthetized (1.5-3% isoflurane) mice were injected in the neck of the pancreas, via laparotomy^59, with sterile PBS (CTRL) or 1.25×10^4 Panc02 cells (OPC), in sterile 1×PBS. Once pancreatic tumors were confirmed through ultrasound imaging (Vevo 2100), a cohort of OPC mice received API (25 mg/kg, 100 μL volume) while CTRL and OPC mice received sterile PBS (vehicle), all via IP, three times per week until the end of the study^12. […] The PCR cycling parameters were 95° C. for 10 min followed by 40 cycles of a denaturing step at 95° C. for 15 s and an annealing/extension step at 60° C. for 1 min. All reactions were performed in triplicate. Relative expression of miR-155 was calculated using the comparative […] method normalized to a mouse endogenous control gene snoRNA202 and human endogenous control gene U6 (Assay IDs: 001232 and 001093).

Compound: O=c1cc(-c2ccc(O)cc2)oc2cc(O)cc(O)c12 [API, 40,5,7-Trihydroxyflavone, 5,7-Dihydroxy-2-(4-hydroxyphenyl)-4-benzopyrone]
- MHC-II+ cells in tumor sections (2D UMAP) ([1]; API treated KC-HPC mice, non-detectable in KC-HPC mice): increase
- CD8+ T cell expression in tumor sections (2D tSNE) ([1]; KC-HPC-API vs vehicle treated KC-HPC mice): increased
- miR-155 gene expression in BM [2]: inhibit the overexpression
- miR-155 gene expression in pancreatic tumor [2]: significant decrease
